Among the test systems are M14 melanoma; RXF 393 renal; U251 CNS; SN12C renal; IGROV1 ovarian; A549 NSCLC; COLO 205 colon; UACC-62 melanoma.
Common to all, as to assay: NCI tumour cell line growth inhibition, 48 h

Molecules are shown by their SMILES.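 Method: 48-hour compound exposure of cells in 96-well plates, five concentrations, linear interpolation of endpoints. The concentration for full growth arrest is given as TGI.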 Where a SMILES comes first, the peptide text is derived from it. [ ]: non-standard residue; d: D form. The star is where a group is joined. AllylGly = C=CC[CH](N)C(=O)O; Boc = CC(C)(C)OC(=O)*; OtBu = CC(C)(C)O*

Consider `COc1ccc2nc3ccc(OC)cc3c(S(=O)(=O)Cc3ccc([N+](=O)[O-])cc3)c2c1`, for which the TGI with M14 melanoma, in the test with RXF 393 renal, in the test on U251 CNS, in the test on SN12C renal, with IGROV1 ovarian and in the test on A549 NSCLC was over 100 µM each time. The TGI in the test on COLO 205 colon and with UACC-62 melanoma was over 100 µM throughout.
For `COc1ccc(N=C(C)c2ccncc2)cc1`, the TGI in the test on M14 melanoma, with RXF 393 renal, in the test with U251 CNS, in the test with SN12C renal, with IGROV1 ovarian and in the test on A549 NSCLC was over 100 µM in each case. Besides, the TGI in the test on COLO 205 colon and with UACC-62 melanoma was over 100 µM throughout.
In the case of `CC1(C)CC[C@]2(C)CC=C3[C@]4(C)CC[C@H]5C(C)(C)C(=O)CC[C@]5(C)[C@H]4CC[C@@]3(C)[C@H]2C1`, the TGI in the test on M14 melanoma, with RXF 393 renal, in the test with U251 CNS, in the test on SN12C renal, in the test on IGROV1 ovarian and in the test with A549 NSCLC was over 100 µM each time. For the same molecule, the TGI in the test on COLO 205 colon and with UACC-62 melanoma was over 100 µM throughout.
Take `COc1ccc(/C=C2\C[C@H]3[C@@H]4CCC5=C[C@@H](N6CCCC6)CC[C@]5(C)[C@H]4CC[C@]3(C)[C@H]2O)cc1`: the TGI in the test with M14 melanoma turned out to be 2.9 µM; in the test with RXF 393 renal, 3.29 µM; in the test with U251 CNS, 12.5 µM; in the test on SN12C renal it was 12.3 µM; with IGROV1 ovarian it was 20 µM; with A549 NSCLC, 7.59 µM. Further, the TGI with COLO 205 colon came out at 3.54 µM; with UACC-62 melanoma, 3.28 µM.
As for `CCOC(=O)CCC(NC(=O)c1ccc(Oc2nc3ccc(C(F)(F)F)cc3nc2-c2ccccc2)cc1)C(=O)OCC` (stereo not drawn), the TGI was over 100 µM with M14 melanoma; 55.4 µM in the test with RXF 393 renal; over 100 µM in the test with U251 CNS; over 100 µM with SN12C renal; over 100 µM in the test on IGROV1 ovarian; over 100 µM with A549 NSCLC. The TGI with COLO 205 colon and with UACC-62 melanoma was over 100 µM each time.
For `O=P(Oc1ccccc1)(Oc1ccccc1)Oc1c[nH]c2ccccc12`, the TGI in the test on M14 melanoma worked out at 26.8 µM; in the test with RXF 393 renal, 29.2 µM; in the test with U251 CNS, 31.9 µM; with SN12C renal it was 26 µM; in the test on IGROV1 ovarian it was 20.7 µM; with A549 NSCLC, 31 µM. The TGI worked out at 13.9 µM in the test on COLO 205 colon and 22 µM in the test with UACC-62 melanoma.
Take `C[C@H](Nc1c(O)c2c(c(O)c1Cl)C(=O)C=CC2=O)C(=O)Nc1ccc([N+](=O)[O-])cc1`: the TGI in the test with M14 melanoma was 2.53 µM; with RXF 393 renal, 3.04 µM; with U251 CNS, 6.02 µM; in the test with SN12C renal it was 2.99 µM; with IGROV1 ovarian it was 4.22 µM; in the test on A549 NSCLC it was 3.64 µM. The results for the TGI in the test on COLO 205 colon and with UACC-62 melanoma were 2.97 µM and 6.16 µM, respectively.
As to `O=C1NC(Cc2c[nH]c3ccccc23)C(=O)N2C(C3CCCCC3)c3[nH]c4ccccc4c3C[C@@H]12` (stereo partly drawn), the TGI in the test on M14 melanoma was 28.9 µM; in the test with RXF 393 renal, 21.2 µM; with U251 CNS it was 26 µM; with SN12C renal, 20.8 µM; in the test on IGROV1 ovarian, 36.9 µM; in the test with A549 NSCLC it was over 100 µM. The values for the TGI with COLO 205 colon and in the test on UACC-62 melanoma were 34.9 µM and 34.5 µM, respectively.
For `CCCCCNc1nonc1N`, the TGI with M14 melanoma, in the test with RXF 393 renal, in the test with U251 CNS, in the test with SN12C renal, with IGROV1 ovarian and with A549 NSCLC was over 100 µM each time. Also, the TGI with COLO 205 colon and with UACC-62 melanoma was over 100 µM in each case.
Turning to `C=CCC(NC(=O)C(CC(=O)OC(C)(C)C)NC(=O)OC(C)(C)C)C(=O)OC` (stereo not drawn) (Boc-Asp(OtBu)-[AllylGly]-OMe; configuration not given here), the TGI in the test on M14 melanoma is 43 µM; in the test with RXF 393 renal, over 100 µM; with U251 CNS, over 63 µM; with SN12C renal it was over 100 µM; with IGROV1 ovarian it was over 100 µM; in the test on A549 NSCLC, over 100 µM. Also, the TGI with COLO 205 colon is 51.8 µM; in the test with UACC-62 melanoma it was over 100 µM.
For `CC(=O)C(=[N+]=[N-])C(=O)OC(C)(C)C#N`, the TGI in the test on M14 melanoma, with RXF 393 renal, in the test on U251 CNS, in the test with SN12C renal, in the test with IGROV1 ovarian and in the test on A549 NSCLC was over 10 µM each time. The TGI with COLO 205 colon and in the test on UACC-62 melanoma was over 10 µM in each case.
With `CC1CC[C@@]2(OC1)OC1C[C@H]3[C@@H]4C/C(=N\N(C)C)[C@@]5(O)CC(O)CC[C@]5(C)[C@H]4CC[C@]3(C)C1[C@@H]2C` (stereo partly drawn), the TGI in the test on M14 melanoma was over 100 µM; in the test on RXF 393 renal, 61.2 µM; with U251 CNS, over 100 µM; in the test on SN12C renal, over 100 µM; in the test with IGROV1 ovarian, over 100 µM; in the test on A549 NSCLC, over 100 µM. Also, the TGI in the test with COLO 205 colon and with UACC-62 melanoma was over 100 µM throughout.
Turning to `CCCCCCOc1ccc(C(=O)NOCc2ccccc2)cc1`, the TGI in the test on M14 melanoma, in the test with RXF 393 renal, in the test on U251 CNS, in the test on SN12C renal, with IGROV1 ovarian and in the test with A549 NSCLC was over 100 µM each time. In addition, the TGI in the test with COLO 205 colon and in the test on UACC-62 melanoma was over 100 µM each time.
On to `Cn1c(=O)cc(NCc2ccc(Cl)cc2)[nH]c1=O`, for which the TGI in the test on M14 melanoma, in the test on RXF 393 renal, in the test with U251 CNS, in the test on SN12C renal, in the test on IGROV1 ovarian and in the test with A549 NSCLC was over 100 µM in each case. The TGI with COLO 205 colon and with UACC-62 melanoma was over 100 µM in each case.
As for `CCOc1ccc(/C(O)=C/c2nc3ccccc3nc2/C=C(\O)c2ccc(OCC)cc2)cc1`, the TGI in the test on M14 melanoma, with RXF 393 renal, with U251 CNS, in the test on SN12C renal, in the test on IGROV1 ovarian and in the test on A549 NSCLC was over 100 µM each time. Moreover, the TGI in the test with COLO 205 colon and in the test with UACC-62 melanoma was over 100 µM in each case.
Consider `O=C(NNC(=S)Nc1ccccc1)c1ccccc1Nc1ccccc1C(=O)NNC(=S)Nc1ccccc1`, for which the TGI in the test with M14 melanoma was 41.5 µM; in the test with RXF 393 renal it was 45.4 µM; in the test on U251 CNS it was 50.7 µM; with SN12C renal, 57.9 µM; in the test on IGROV1 ovarian it was 32.3 µM; in the test with A549 NSCLC it was over 100 µM. Besides, the TGI with COLO 205 colon is 41.5 µM; in the test with UACC-62 melanoma, 26.9 µM.

For the origin of these results see PubChem BioAssay (NCI).
